Source: ChEMBL document CHEMBL1142762, “Identification of 4-methyl-1,2,3,4,10,10a-hexahydropyrazino[1,2-a]indoles as 5-HT2C receptor agonists” (Bioorg Med Chem Lett, 2005)

Key:
[1] = biological target: 5-hydroxytryptamine receptor 2B (Homo sapiens, UniProt P41595); assay: Binding affinity toward 5-HT2B receptor evaluated by displacement of [3H]5-HT radioligand
[2] = biological target: T1, 5-hydroxytryptamine receptor 2C (Homo sapiens, UniProt P28335); assay: Binding affinity toward 5-HT2C receptor evaluated by displacement of [3H]5-HT radioligand
T1 sequence (P28335 whole entry): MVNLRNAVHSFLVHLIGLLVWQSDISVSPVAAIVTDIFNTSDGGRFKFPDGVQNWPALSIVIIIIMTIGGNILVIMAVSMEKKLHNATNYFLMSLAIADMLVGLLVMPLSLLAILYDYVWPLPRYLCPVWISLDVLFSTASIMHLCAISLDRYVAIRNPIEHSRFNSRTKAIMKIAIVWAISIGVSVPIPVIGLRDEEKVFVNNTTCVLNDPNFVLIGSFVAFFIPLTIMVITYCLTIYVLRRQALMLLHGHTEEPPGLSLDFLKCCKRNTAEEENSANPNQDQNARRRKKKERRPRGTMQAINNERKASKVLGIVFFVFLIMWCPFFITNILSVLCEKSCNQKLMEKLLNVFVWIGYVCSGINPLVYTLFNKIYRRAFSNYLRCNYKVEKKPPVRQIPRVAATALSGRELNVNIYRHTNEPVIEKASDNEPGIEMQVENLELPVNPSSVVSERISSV

[3] = biological target: 5-hydroxytryptamine receptor 2A (Homo sapiens, UniProt P28223); assay: Binding affinity toward 5-HT2A receptor evaluated by displacement of [125I]DOI radioligand
[4] = biological target: T2, 5-hydroxytryptamine receptor 2C (Homo sapiens) (UniProt P28335); assay: Relative efficacy toward 5-HT2C receptor
T2 sequence (whole entry): T1 sequence (P28335 whole entry)

Sequence of 5-hydroxytryptamine receptor 2A (P28223 whole entry): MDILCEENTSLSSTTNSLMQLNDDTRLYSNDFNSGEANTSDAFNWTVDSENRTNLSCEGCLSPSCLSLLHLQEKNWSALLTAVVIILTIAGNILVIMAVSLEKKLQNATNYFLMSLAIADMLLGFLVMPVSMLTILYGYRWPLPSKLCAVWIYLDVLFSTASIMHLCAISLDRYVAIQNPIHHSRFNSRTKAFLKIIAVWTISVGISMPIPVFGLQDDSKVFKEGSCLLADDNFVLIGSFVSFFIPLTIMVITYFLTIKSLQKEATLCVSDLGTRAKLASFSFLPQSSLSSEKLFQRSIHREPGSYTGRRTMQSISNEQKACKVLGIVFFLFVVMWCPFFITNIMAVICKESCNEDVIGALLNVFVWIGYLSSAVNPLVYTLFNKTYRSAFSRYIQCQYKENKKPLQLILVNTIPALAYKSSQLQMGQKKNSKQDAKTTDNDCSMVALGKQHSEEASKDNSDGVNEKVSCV
Sequence of 5-hydroxytryptamine receptor 2B (P41595 whole entry): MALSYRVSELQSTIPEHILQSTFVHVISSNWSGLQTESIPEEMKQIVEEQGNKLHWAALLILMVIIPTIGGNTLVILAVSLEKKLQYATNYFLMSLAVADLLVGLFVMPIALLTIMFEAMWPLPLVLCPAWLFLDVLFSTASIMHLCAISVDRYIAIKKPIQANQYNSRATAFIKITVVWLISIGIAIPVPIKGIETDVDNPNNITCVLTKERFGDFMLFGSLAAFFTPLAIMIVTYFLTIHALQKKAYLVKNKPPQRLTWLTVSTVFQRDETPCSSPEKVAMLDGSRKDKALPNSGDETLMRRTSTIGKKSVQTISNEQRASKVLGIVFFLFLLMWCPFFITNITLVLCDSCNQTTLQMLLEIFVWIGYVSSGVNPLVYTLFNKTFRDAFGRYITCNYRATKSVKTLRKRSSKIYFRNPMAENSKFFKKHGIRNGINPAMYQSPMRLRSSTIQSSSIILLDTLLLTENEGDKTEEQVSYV

Structure (SMILES)	Ki [1] [nM]	Ki [2] [nM]	Ki [3] [nM]	Efficacy [4] [%]
C[C@@H]1CNC[C@H]2Cc3ccc(C(F)(F)F)cc3N21	11	1.4	7.5	94
C[C@H]1CNC[C@@H]2Cc3ccccc3N21	2600	180	430	62
Cc1c(Cl)ccc2c1N1CCNC[C@@H]1C2	140	32	52	80
C[C@@H]1CNC[C@@H]2Cc3ccccc3N21 (stereo in doubt; 8) [listing 1 of 2 here]				87
C[C@@H]1CNC[C@@H]2Cc3ccccc3N21 (stereo in doubt; 7) [listing 1 of 2 here]	210	13	55	
Cc1c(Cl)ccc2c1N1[C@H](CNC[C@H]1C)C2	19	1.9	40	97
Cc1ccc2c(c1C)N1[C@@H](CNC[C@H]1C)C2	13	1.7	34	96
Cc1cccc2c1N1[C@@H](CNC[C@H]1C)C2	59	2.6	43	100
Cc1ccc2c(c1C)N1[C@H](CNC[C@H]1C)C2	67	9.5	102	91
Cc1c(Cl)ccc2c1N1[C@@H](CNC[C@H]1C)C2	3.2	0.3	2.6	98
C[C@@H]1CNC[C@H]2Cc3ccc(CO)cc3N21	250	34	290	97
C[C@@H]1CNC[C@H]2Cc3ccccc3N21	15	2.2	1.9	97
Cc1ccc2c(c1)N1[C@@H](CNC[C@H]1C)C2	21	1.3	22	100
Clc1ccc2c(c1)N1CCNCC1C2 (stereo not drawn)	53	31	32	99
Cc1c(Cl)ccc2c1N1CCNC[C@H]1C2	10	1.5	6.2	90
C[C@@H]1CNC[C@@H]2Cc3ccccc3N21 (stereo in doubt; 7) [listing 2 of 2 here]				94
CC(=O)Nc1ccc2c(c1)N1[C@@H](CNC[C@H]1C)C2	960	680	1100	24
C[C@@H]1CNC[C@H]2Cc3ccc(C#N)cc3N21	90	3.8	110	77
C[C@@H]1CNC[C@@H]2Cc3ccccc3N21 (stereo in doubt; 8) [listing 2 of 2 here]	160	22	61	
